The text below walks through data of US6831190B1, “Guanidinomethyl cyclohexane carboxylic acid ester derivatives” (Teikoku Chemical Industries Co., Ltd., priority 1994, dated 2004).

Common to all, as to assay type: cell-based
Assay [1] deals with Bacillus subtilis ATCC 6633. The experiment in a line: MIC, standard method of Japanese Chemotherapy Academy. The following applies: standard method of Japanese Chemotherapy Academy. As for the experimental part: (§1) 1. Minimum Inhibitory Concentration (MIC) was measured in accordance with the standard method of Japanese Chemotherapy Academy (Chemotherapy, 29: 76-79, 1981).
And MIC of the compounds of Example 3, 36, 8, 14, 17, 21, 41 and 45 were measured.

Assay [2] relates to Escherichia coli NIH JC-2. The assay is described as above. The conditions noted are these: for MIC: Objected Strain 3: Escherichia coli NIH JC-2. The method, then: as §1
For assay [3], the system named is Helicobacter pylori ATCC 43629. Briefly: MIC, agar plating dilution (standard method of Japanese Chemotherapy Academy). The conditions noted are these: Objected Strain 2: Helicobacter pylori ATCC 43629. As for the experimental part:
(§2) 1. Minimum Inhibitory Concentration (MIC) was measured in accordance with the standard method of Japanese Chemotherapy Academy (Chemotherapy, 29: 76-79, 1981). Sensitivity was measured with an agar plating dilution using Brain-Heart Infusion agar (Difco Co.) which was added 0.1% of cyclodextrin. […] of the solutions of the compounds which were obtained in examples of the present invention was prepared by dissolving in dimethylsulfoxide. […] Each of 1 ml of those prepared solutions was dispensed in share, after sterilization, 9 ml of sensitivity measuring medium which is kept at 50° C. was added to each, and they were sufficiently mixed. The mixture was used as a plate for measuring sensitivity. Brain Heart Infusion agar medium (Difco Co.), which was added 0.1% of cyclodextrin, was used as bacteria growing medium, and was cultured under microair at 37° C. for three days, and the number of bacteria thereof was adjusted to about 106/ml. This was used as a bacterial solution for inoculation. The medium was painted in each square about 2 cm with nichromic line loop. The medium was cultured under microair for three days at 37° C.

The subject of assay [4] is Helicobacter pylori ATCC 43504. The assay is described as above. The conditions noted are these: Objected Strain 1: Helicobacter pylori ATCC 43504. As for the experimental part: as §2
For assay [5], the system named is Helicobacter pylori No. 2. Briefly: MIC, agar plating dilution, clinical segregation strain. The following applies: Strain 5: Helicobacter pylori No. 2. As for the experimental part:
(§3) Minimum Inhibitory Concentration (MIC) was measured in accordance with the standard method of Japanese Chemotherapy Academy (Chemotherapy, 29: 76-79, 1981). Sensitivity was measured with an agar plating dilution using Brain-Heart Infusion agar (Difco Co.) which was added 0.1% of cyclodextrin. […] of the solutions of the compounds which were obtained in examples of the present invention was prepared by dissolving in dimethylsulfoxide. […] Each of 1 ml of those prepared solutions was dispensed in share, after sterilization, 9 ml of sensitivity measuring medium which is kept at 50° C. was added to each, and they were sufficiently mixed. The mixture was used as a plate for measuring sensitivity. Brain Heart Infusion agar medium (Difco Co.), which was added 0.1% of cyclodextrin, was used as bacteria growing medium, and was cultured under microair at 37° C. for three days, and the number of bacteria thereof was adjusted to about 106/ml. This was used as a bacterial solution for inoculation. The medium was painted in each square about 2 cm with nichromic line loop. The medium was cultured under microair for three days at 37° C. […] The each result is shown at Table 4.

In assay [6] the test system is Helicobacter pylori No. 1. Described as above. The following applies: Strain 4: Helicobacter pylori No. 1. As for the experimental part: as §3
In assay [7] the test system is Helicobacter pylori No. 4. The description is as above. The following applies: Strain 7: Helicobacter pylori No. 4. As for the experimental part:
as §3

The test system of assay [8] is Helicobacter pylori No. 3. The assay is described as above. The conditions noted are these: Strain 6: Helicobacter pylori No. 3. As for the experimental part: as §3

As for “4-[4-(trans-4-guanidinomethyl cyclohexylcarbonyloxy)phenyl]benzoate.methansulfonate [Example 28]”, the MIC against bacillus subcillus ATCC 6633 in assay [1] is over 25 µg/mL. Besides, in assay [2] (standard method of Japanese Chemotherapy Academy), the MIC against Escherichia coli. NHJC-2 was over 25 µg/mL.
By MIC is commonly meant the least concentration at which growth counts as inhibited. High values mean a less susceptible organism, low ones a more susceptible organism. Take `Cl.N=C(N)NC[C@H]1CC[C@H](C(=O)Oc2ccc(-c3ccccc3)cc2)CC1` [Compound 1, trans-4-guanidinomethyl cyclohexane carboxylic acid (4-phenylphenylester)hydrochloride, reference compound]: the MIC is 0.78 µg/mL in assay [3]; 3.13 µg/mL in assay [4]; over 25 µg/mL in assay [2]; 1.56 µg/mL in assay [5]; 0.39 µg/mL in assay [6]; 0.78 µg/mL in assay [7]. For the same compound, in assay [8], the MIC is 0.39 µg/mL.
With `CCOC(=O)c1ccc(-c2ccc(OC(=O)[C@H]3CC[C@H](CNC(=N)N)CC3)cc2)cc1.Cl` [Example 2, trans-4-guanidinomethyl cyclohexane carboxylic acid [4-(4-ethoxycarbonylphenyl)phenylester].hydrochloride], the MIC in assay [3] was 0.78 µg/mL; in assay [4], 1.56 µg/mL; in assay [2], over 25 µg/mL; in assay [5] it was 1.56 µg/mL; in assay [6], 0.39 µg/mL; in assay [7], 0.78 µg/mL. In assay [8], this compound returned an MIC of 0.39 µg/mL.
For `COc1ccc(COC(=O)c2ccc(-c3ccc(OC(=O)[C@H]4CC[C@H](CNC(=N)N)CC4)cc3)cc2)cc1.Cl` [Example 18, trans-4-guanidinomethyl cyclohexane carboxylic acid [4-[4-(4-methoxybenzyloxy carbonyl)phenyl]phenylester].hydrochloride], the minimal inhibitory concentration (MIC) in assay [3] was 0.78 µg/mL; in assay [4], 0.78 µg/mL; in assay [2], over 25 µg/mL; in assay [5], 0.78 µg/mL; in assay [6], 0.20 µg/mL; in assay [7], 0.39 µg/mL. Also, the MIC in assay [8] turned out to be 0.20 µg/mL. Besides, in assay [1], the MIC against bacillus subcillus ATCC 6633 came to 25 µg/mL.
As to `Cl.N=C(N)NC[C@H]1CC[C@H](C(=O)Oc2ccc(-c3ccc(C(=O)OCc4ccccc4F)cc3)cc2)CC1` [Example 19, trans-4-guanidinomethyl cyclohexane carboxylic acid [4-[4-(2-fluorobenzyloxycarbonyl)phenyl]phenylester].hydrochloride], the minimal inhibitory concentration (MIC) was 0.39 µg/mL in assay [3]; 0.39 µg/mL in assay [4]; over 25 µg/mL in assay [2]; 0.78 µg/mL in assay [5]; 0.20 µg/mL in assay [6]; 0.39 µg/mL in assay [7]. This compound registered a minimum inhibitory concentration (MIC) in assay [8] of 0.20 µg/mL. In addition, in assay [1], the MIC against bacillus subcillus ATCC 6633 was over 25 µg/mL.
For the compound `CC(C)OC(=O)c1ccc(-c2ccc(OC(=O)[C@H]3CC[C@H](CNC(=N)N)CC3)cc2)cc1.Cl` [Example 20, trans-4-guanidinomethyl cyclohexane carboxylic acid [4-(4-isopropyloxycarbonyl)phenylphenylester].hydrochloride], the MIC in assay [3] was 0.78 µg/mL; in assay [4], 0.78 µg/mL; in assay [2], over 25 µg/mL; in assay [5] it was 1.56 µg/mL; in assay [6] it was 0.39 µg/mL; in assay [7] it was 0.78 µg/mL. Besides, the MIC in assay [8] was 0.39 µg/mL.
With `Cl.N=C(N)NC[C@H]1CC[C@H](C(=O)Oc2ccc(-c3ccc(C(=O)OCC4CCCCC4)cc3)cc2)CC1` [Example 23, trans-4-guanidinomethyl cyclohexane carboxylic acid [4-(4-cyclohexylmethyloxy carbonylphenyl)phenylester].hydrochloride], the MIC in assay [3] is 0.39 µg/mL; in assay [4], 0.20 µg/mL; in assay [2], over 25 µg/mL; in assay [5], 0.39 µg/mL; in assay [6] it was 0.20 µg/mL; in assay [7], 0.39 µg/mL. Moreover, in assay [8], the MIC turned out to be 0.20 µg/mL. Moreover, the MIC against bacillus subcillus ATCC 6633 in assay [1] was found to be 25 µg/mL.
As to `Cc1ccc(COC(=O)c2ccc(-c3ccc(OC(=O)[C@H]4CC[C@H](CNC(=N)N)CC4)c(Br)c3)cc2)cc1.Cl` [Example 24, trans-4-guanidinomethyl cyclohexane carboxylic acid[2-bromo-4-[4-(4-methylbenzyloxycarbonyl)phenyl]phenylester].hydrochloride], the MIC is 0.78 µg/mL in assay [3]; 0.39 µg/mL in assay [4]; over 25 µg/mL in assay [2]; 0.39 µg/mL in assay [5]; 0.39 µg/mL in assay [7]; 0.20 µg/mL in assay [8]. Moreover, in assay [1], the MIC against bacillus subcillus ATCC 6633 was over 25 µg/mL.
Take `Cl.N=C(N)NC[C@H]1CC[C@H](C(=O)Oc2ccc(Oc3ccccc3)cc2)CC1` [Example 35, trans-4-guanidinomethyl cyclohexane carboxylic acid (4-phenoxyphenylester).hydrochloride]: the minimum inhibitory concentration (MIC) was 25 µg/mL in assay [3], 12.5 µg/mL in assay [4] and over 25 µg/mL in assay [2].
In the same order, the values of `Cl.N=C(N)NC[C@H]1CC[C@H](C(=O)Oc2ccc(OCc3ccccc3)cc2)CC1` [Example 37, trans-4-guanidinomethyl cyclohexane carboxylic acid (4-benzyloxyphenylester).hydrochloride] are 3.13 µg/mL, 12.5 µg/mL and over 25 µg/mL.
On to `Cl.N=C(N)NC[C@H]1CC[C@H](C(=O)Oc2ccc(C=Cc3ccccc3)cc2)CC1` [Example 38, trans-4-guanidinomethyl cyclohexane carboxylic acid (4-styrylphenylester).hydrochloride], for which the MIC in assay [3] is 0.39 µg/mL; in assay [4], 0.78 µg/mL; in assay [2], over 25 µg/mL.
As for `Cl.N=C(N)NC[C@H]1CC[C@H](C(=O)Oc2ccc(-c3ccc(C(=O)OCCCc4ccccc4)cc3)cc2)CC1` [Example 39, trans-4-guanidinomethyl cyclohexane carboxylic acid[4-[4-(3-phenylpropyloxycarbonyl)phenyl]phenylester].hydrochloride], the MIC is 0.78 µg/mL in assay [3]; 0.39 µg/mL in assay [4]; over 25 µg/mL in assay [2]; 0.78 µg/mL in assay [5]; 0.39 µg/mL in assay [6]; 0.39 µg/mL in assay [7]. The MIC in assay [8] turned out to be 0.20 µg/mL.
Regarding `Cl.N=C(N)NC[C@H]1CC[C@H](C(=O)Oc2ccc(-c3ccc(C(=O)OCCCOc4ccc(F)cc4)cc3)cc2)CC1` [Example 40, trans-4-guanidinomethyl cyclohexane carboxylic acid[4-[4-[3-(4-fluorophenyloxy)propyloxycarbonyl]phenyl]phenylester].hydrochloride], the MIC in assay [3] is 0.39 µg/mL; in assay [4] it was 0.20 µg/mL; in assay [2], over 25 µg/mL; in assay [5], 0.78 µg/mL; in assay [6], 0.20 µg/mL; in assay [7] it was 0.39 µg/mL. The compound also showed a minimal inhibitory concentration (MIC) in assay [8] of 0.10 µg/mL.
For `CCCC[C@H]1CC[C@H](COC(=O)c2ccc(-c3ccc(OC(=O)[C@H]4CC[C@H](CNC(=N)N)CC4)cc3)cc2)CC1.Cl` [Example 42, trans-4-guanidinomethyl cyclohexane carboxylic acid[4-[4-(trans-4-n-butylcyclohexylmethloxycarbonyl)phenyl]phenylester].hydrochloride], the MIC in assay [3] is 1.56 µg/mL; in assay [4], 0.39 µg/mL; in assay [2], over 25 µg/mL; in assay [5] it was 1.56 µg/mL; in assay [6], 0.39 µg/mL; in assay [7], 0.39 µg/mL. Moreover, in assay [8], the MIC worked out at 0.20 µg/mL.
